Experimental data taken from US12281116B2, “HTT modulators for treating Huntington's disease” (CHDI Foundation, Inc., priority 2021, dated 2025).

System: tHTT (total HTT protein)
Test: Time-resolved FRET (HTRF) assay: Q48-Huntingtin and total-Huntingtin detection in GEN020 hESC lysates
Assay type: cell-based
Details: tHTT activity; human embryonic stem cells GEN020 (mutant 48 Q repeat allele); test compounds 48 hours; read-out: HTT Lowering Activity (HTRF)
Description: Time-resolved FRET assay: Q48-Huntingtin and total-Huntington detection Detection of endogenous HTT protein in cell lysates was performed using a protocol adapted from Weiss et al. See Weiss A et al. (2009). Single-step detection of mutant huntingtin in animal and human tissues: a bioassay for Huntington's disease. Anal. Biochem. 395(1): 8-15.
The multiplex assay was performed in human embryonic stem cells (GEN020 hESCs with mutant 48 Q repeat allele) which have been derived by Genea Biocells from human blastocysts of HD donors. Bradley C K et al. (2011). Derivation of Huntington's disease-affected human embryonic stem cell lines, Stem Cells Dev. 2011 March; 20(3):495-502. Cells were plated into 384-well collagen coated plates (10,000 cells per well) and left to adhere for 24 hours, test compounds were then added for 48 hours (37° C., 5% CO2), cells were then lysed, and the lysate was transferred to a black 384-well assay plate.
The assay plate included a combination of HTRF labelled monoclonal antibodies added to recognize discreet areas of the HTT protein, the Tb “donor” antibody (2B7-Tb: 0.2 ng/well) recognizes a sequence at the N-terminus of the protein, an Alexa488 “acceptor 1” antibody (MW1-Alexa488: 30 ng/well) recognizes an area in the polyQ region, whereas a d2 “acceptor 2” antibody (MAB2166-d2: 6 ng/well) recognizes a sequence beyond the polyQ region. These detection reagents were incubated with the cell lysate at room temperature for 4-6 hours before having their fluorescence quantified at 615 nm (donor) and 535 nm and 665 nm (acceptor 1 and 2 respectively). The donor/acceptor ratio between these signals indicated the relative quantities of mHTT and tHTT.
Results for various compounds described herein are provided in the Tables below. tHTT activity in this assay is categorized as 10-20 μM (−); 1-10 μM (+); 0.5-1 μM (++); 0.1-0.5 μM (+++); <0.1 μM (++++).

SMILES | IC50 [nM]
Cc1cn2cc(NC(=O)c3cnc(N4CCC(C)(N)C4)cn3)cc(F)c2n1 (racemic) [Example 42, 5-(3-Amino-3-methyl-pyrrolidin-1-yl)-N-(8-fluoro-2-methyl-imidazo[1,2-a]pyridin-6-yl)pyrazine-2-carboxamide] | 100 to 500
Cc1cn2cc(NC(=O)c3cnc(N4CCC(N(C)C)C4=O)cn3)cc(F)c2n1 (single isomer, unassigned) [Example 38, (S*)-5-(3-(dimethylamino)-2-oxopyrrolidin-1-yl)-N-(8-fluoro-2-methylimidazo[1,2-a]pyridin-6-yl)pyrazine-2-carboxamide] | 500 to 1000
Cc1cn2cc(NC(=O)c3cnc(N4CCC(N(C)C)C4=O)cn3)cc(F)c2n1 (single isomer, unassigned) [Example 39, (R*)-5-(3-(dimethylamino)-2-oxopyrrolidin-1-yl)-N-(8-fluoro-2-methylimidazo[1,2-a]pyridin-6-yl)pyrazine-2-carboxamide] | 500 to 1000
Cc1cn2cc(NC(=O)c3cnc(N4CC(CNC5CC5)CC4=O)cn3)cc(F)c2n1 (single isomer, unassigned) [Example 40, (R*)-5-(4-((cyclopropylamino)methyl)-2-oxopyrrolidin-1-yl)-N-(8-fluoro-2-methylimidazo[1,2-a]pyridin-6-yl)pyrazine-2-carboxamide] | 100 to 500
Cc1cn2cc(NC(=O)c3cnc(N4CC(CNC5CC5)CC4=O)cn3)cc(F)c2n1 (single isomer, unassigned) [Example 41, (S*)-5-(4-((cyclopropylamino)methyl)-2-oxopyrrolidin-1-yl)-N-(8-fluoro-2-methylimidazo[1,2-a]pyridin-6-yl)pyrazine-2-carboxamide] | 500 to 1000
Cn1cc2cc(NC(=O)c3cnc(N4CC[C@@H](NC5CC5)C4)cn3)c(OC3CCOCC3)cc2n1 [Example 2, (R)-5-(3-(cyclopropylamino)pyrrolidin-1-yl)-N-(2-methyl-6-((tetrahydro-2H-pyran-4-yl)oxy)-2H-indazol-5-yl)pyrazine-2-carboxamide] | 500 to 1000
CC#CCOc1cc2nn(C)cc2cc1NC(=O)c1cnc(N2CC[C@@H](NC3CC3)C2)cn1 [Example 3, (R)-N-(6-(but-2-yn-1-yloxy)-2-methyl-2H-indazol-5-yl)-5-(3-(cyclopropylamino)pyrrolidin-1-yl)pyrazine-2-carboxamide] | 100 to 500
C#CCOc1cc2nn(C)cc2cc1NC(=O)c1cnc(N2CC[C@@H](NC)C2)cn1 [Example 4, (R)-N-(2-methyl-6-(prop-2-yn-1-yloxy)-2H-indazol-5-yl)-5-(3-(methylamino)pyrrolidin-1-yl)pyrazine-2-carboxamide] | < 100
C#CCOc1cc2nn(C)cc2cc1NC(=O)c1cnc(N2CC[C@@H](NC3CC3)C2)cn1 [Example 5, (R)-5-(3-(cyclopropylamino)pyrrolidin-1-yl)-N-(2-methyl-6-(prop-2-yn-1-yloxy)-2H-indazol-5-yl)pyrazine-2-carboxamide] | 100 to 500
Cn1cc2cc(NC(=O)c3cnc(N4CC[C@@H](NC5CC5)C4)cn3)c(OCC3CCOCC3)cc2n1 [Example 6, (R)-5-(3-(cyclopropylamino)pyrrolidin-1-yl)-N-(2-methyl-6-((tetrahydro-2H-pyran-4-yl)methoxy)-2H-indazol-5-yl)pyrazine-2-carboxamide] | 500 to 1000
Cn1cc2cc(NC(=O)c3cnc(N4CC[C@@H](NC5CC5)C4)cn3)c(OCC#N)cc2n1 [Example 7, (R)-N-(6-(cyanomethoxy)-2-methyl-2H-indazol-5-yl)-5-(3-(cyclopropylamino)pyrrolidin-1-yl)pyrazine-2-carboxamide] | 100 to 500
CN[C@@H]1CCN(c2cnc(C(=O)Nc3cc4cn(C)nc4cc3OCc3ccccc3)cn2)C1 [Example 8, (R)-N-(6-(benzyloxy)-2-methyl-2H-indazol-5-yl)-5-(3-(methylamino)pyrrolidin-1-yl)pyrazine-2-carboxamide] | < 100
COCCOc1cc2nn(C)cc2cc1NC(=O)c1cnc(N2CC[C@@H](NC3CC3)C2)cn1 [Example 9, (R)-5-(3-(cyclopropylamino)pyrrolidin-1-yl)-N-(6-(2-methoxyethoxy)-2-methyl-2H-indazol-5-yl)pyrazine-2-carboxamide] | 100 to 500
CN1CCCC2(C1)CN(c1cnc(C(=O)Nc3cc4cn(C)nc4cc3OCc3ccccc3)cn1)C2 [Example 10, N-(6-(benzyloxy)-2-methyl-2H-indazol-5-yl)-5-(6-methyl-2,6-diazaspiro[3.5]nonan-2-yl)pyrazine-2-carboxamide] | 100 to 500
C#CCOc1cc2nn(C)cc2cc1NC(=O)c1cnc(N2CC3(CCCN(C)C3)C2)cn1 [Example 11, N-(2-methyl-6-(prop-2-yn-1-yloxy)-2H-indazol-5-yl)-5-(6-methyl-2,6-diazaspiro[3.5]nonan-2-yl)pyrazine-2-carboxamide] | 100 to 500
Cc1nc2c(F)cc(NC(=O)c3cnc(N4CC(CNC(C)C)C4)cn3)cc2o1 [Example 12, N-(4-fluoro-2-methylbenzo[d]oxazol-6-yl)-5-(3-((isopropylamino)methyl)azetidin-1-yl)pyrazine-2-carboxamide] | 100 to 500
Cc1cn2cc(NC(=O)c3cnc(N4C[C@@H](C)[C@H](NC5CC5)C4)cn3)cc(F)c2n1 [Example 13, 5-((3S,4R)-3-(cyclopropylamino)-4-methylpyrrolidin-1-yl)-N-(8-fluoro-2-methylimidazo[1,2-a]pyridin-6-yl)pyrazine-2-carboxamide] | 100 to 500

SMILES | IC50 [nM]
Cc1nc2c(F)cc(NC(=O)c3cnc(N(C)C4CCNCC4)cn3)cc2o1 [Example 14, N-(4-fluoro-2-methylbenzo[d]oxazol-6-yl)-5-(methyl(piperidin-4-yl)amino)pyrazine-2-carboxamide] | 100 to 500
CN[C@@H]1CCN(c2cnc(C(=O)Nc3cc(Cl)n4nc(C)cc4c3)cn2)C1 [Example 15] | < 100
Cc1cc2cc(NC(=O)c3cnc(N4CC[C@@H](CNC5CC5)C4)cn3)cc(Cl)n2n1 [Example 16] | 500 to 1000
CCOc1cc2nn(C)cc2cc1NC(=O)c1cnc(N2CC(CN3CC(F)C3)C2)cn1 [Example 17] | 100 to 500
Cn1cc2cc(NC(=O)c3cnc(N4CC[C@@H](NC5CC5)C4)cn3)c(OC(F)F)cc2n1 [Example 18] | 100 to 500
CN[C@@H]1CCN(c2cnc(C(=O)Nc3cc(F)c4nc(C)nn4c3)cn2)C1 [Example 19, (R)-N-(8-fluoro-2-methyl-[1,2,4]triazolo[1,5-a]pyridin-6-yl)-5-(3-(methylamino)pyrrolidin-1-yl)pyrazine-2-carboxamide] | 100 to 500
Cc1cn2cc(NC(=O)c3cnc(N4CC[C@@H](NC5=NCCN5)C4)cn3)cc(F)c2n1 [Example 20, (R)-5-(3-((4,5-dihydro-1H-imidazol-2-yl)amino)pyrrolidin-1-yl)-N-(8-fluoro-2-methylimidazo[1,2-a]pyridin-6-yl)pyrazine-2-carboxamide] | 100 to 500
CN[C@@H]1CCN(c2cnc(C(=O)Nc3cn4cc(C)nc4c(F)c3C)cn2)C1 [Example 21, (R)-N-(8-fluoro-2,7-dimethylimidazo[1,2-a]pyridin-6-yl)-5-(3-(methylamino)pyrrolidin-1-yl)pyrazine-2-carboxamide] | 100 to 500
CN[C@@H]1CCN(c2cnc(C(=O)Nc3cc(OC)c4nc(C)oc4c3)cn2)C1 [Example 22, (R)-N-(4-methoxy-2-methylbenzo[d]oxazol-6-yl)-5-(3-(methylamino)pyrrolidin-1-yl)pyrazine-2-carboxamide] | 100 to 500
CCNC1C2CN(c3cnc(C(=O)Nc4cc(F)c5nc(C)cn5c4)cn3)CC21 (stereo not drawn) [Example 23, 5-(6-(ethylamino)-3-azabicyclo[3.1.0]hexan-3-yl)-N-(8-fluoro-2-methylimidazo[1,2-a]pyridin-6-yl)pyrazine-2-carboxamide] | < 100
Cc1cn2cc(NC(=O)c3cnc(N4CC5C(N)C5C4)cn3)cc(F)c2n1 (stereo not drawn) [Example 24, 5-(6-amino-3-azabicyclo[3.1.0]hexan-3-yl)-N-(8-fluoro-2-methyl-imidazo[1,2-a]pyridin-6-yl)pyrazine-2-carboxamide] | < 100
Cc1cn2cc(NC(=O)c3cnc(N4CC5C(N)C5C4)cn3)nc(C)c2n1 (stereo not drawn) [Example 25] | 100 to 500
COc1nc(NC(=O)c2cnc(N3CC4C(N)C4C3)cn2)cn2cc(C)nc12 (stereo not drawn) [Example 26] | < 100
Cc1cn2cc(NC(=O)c3cnc(N4CC5C(N)C5C4)cn3)c(F)c(C)c2n1 (stereo not drawn) [Example 27] | 100 to 500
Cc1cn2cc(NC(=O)c3cnc(N4CC5CC5(N)C4)cn3)cc(F)c2n1 (stereo not drawn) [Example 28] | 100 to 500
CNC1C2CN(c3cnc(C(=O)Nc4cc(F)c5nc(C)cn5c4)cn3)CC21 (stereo not drawn) [Example 29, N-(8-Fluoro-2-methyl-imidazo[1,2-a]pyridin-6-yl)-5-[6-(methylamino)-3-azabicyclo[3.1.0]hexan-3-yl]pyrazine-2-carboxamide] | < 100
